Assay results reported in the NIST ThermoML archive (doi:10.1016/j.tca.2011.12.010).
“And” between values parts separate entries of the source, which are not always exact repeats. Identical values can stand only once. ± gives the expanded uncertainty stated by the source.

Experiment: molar heat capacity at constant pressure
Details: 101.33 kPa, Small sample (50 mg) DSC

O=[N+]([O-])[O-].O=[N+]([O-])[O-].O=[N+]([O-])[O-].O=[N+]([O-])[O-].[K+].[K+].[Mg+2] [bis-potassium magnesium nitrate]
Details | molar heat capacity at constant pressure
461 K, Crystal 1 | 606.9 ± 12 J/K/mol
462 K, Crystal 1 | 680.8 ± 14 J/K/mol
463 K, Crystal 1 | 806.8 ± 16 J/K/mol
464 K, Crystal 1 | 1030.1 ± 22 J/K/mol
465 K, Crystal 1 | 1503.6 ± 34 J/K/mol
466 K, Crystal 1 | 2552.2 ± 57 J/K/mol
467 K, Crystal 1 | 4003 ± 80 J/K/mol
469 K, Liquid | 2955.4 ± 60 J/K/mol
470 K, Liquid | 2419.9 ± 50 J/K/mol
471 K, Liquid | 1683.9 ± 36 J/K/mol
472 K, Liquid | 1106.4 ± 24 J/K/mol
473 K, Liquid | 770 ± 16 J/K/mol
474 K, Liquid | 542.5 ± 11 J/K/mol
475 K, Liquid | 510 ± 10 J/K/mol
476 K, Liquid | 480.6 ± 9.6 J/K/mol
477 K, Liquid | 469 ± 9.4 J/K/mol
478 K, Liquid | 455.6 ± 9.1 J/K/mol
478.15 K, Liquid | 463.8 ± 9.3 J/K/mol
479 K, Liquid | 462.4 ± 9.2 J/K/mol
480 K, Liquid | 462.4 ± 9.2 J/K/mol
481 K, Liquid | 462.4 ± 9.2 J/K/mol
482 K, Liquid | 462.6 ± 9.3 J/K/mol
483 K, Liquid | 462.8 ± 9.3 J/K/mol
484 K, Liquid | 463 ± 9.3 J/K/mol
485 K, Liquid | 459.2 ± 9.2 J/K/mol and 463.2 ± 9.3 J/K/mol
486 K, Liquid | 463.3 ± 9.3 J/K/mol
487 K, Liquid | 463.4 ± 9.3 J/K/mol
488 K, Liquid | 463.6 ± 9.3 J/K/mol
489 K, Liquid | 463.8 ± 9.3 J/K/mol
490 K, Liquid | 463.9 ± 9.3 J/K/mol
491 K, Liquid | 464.1 ± 9.3 J/K/mol
492 K, Liquid | 464.6 ± 9.3 J/K/mol
493 K, Liquid | 464.6 ± 9.3 J/K/mol
494 K, Liquid | 464.9 ± 9.3 J/K/mol
495 K, Liquid | 465.2 ± 9.3 J/K/mol
496 K, Liquid | 465.5 ± 9.3 J/K/mol
497 K, Liquid | 465.6 ± 9.3 J/K/mol
498 K, Liquid | 465.8 ± 9.3 J/K/mol
499 K, Liquid | 466 ± 9.3 J/K/mol
500 K, Liquid | 466.2 ± 9.3 J/K/mol
501 K, Liquid | 466.4 ± 9.3 J/K/mol
502 K, Liquid | 466.6 ± 9.3 J/K/mol
503 K, Liquid | 466.1 ± 9.3 J/K/mol
504 K, Liquid | 467 ± 9.3 J/K/mol
505 K, Liquid | 467.2 ± 9.3 J/K/mol
506 K, Liquid | 467.4 ± 9.3 J/K/mol
507 K, Liquid | 467 ± 9.3 J/K/mol
508 K, Liquid | 467.8 ± 9.4 J/K/mol
509 K, Liquid | 466.6 ± 9.3 J/K/mol
510 K, Liquid | 469 ± 9.4 J/K/mol and 466.2 ± 9.3 J/K/mol
511 K, Liquid | 466.2 ± 9.3 J/K/mol
512 K, Liquid | 464.1 ± 9.3 J/K/mol
513 K, Liquid | 465.5 ± 9.3 J/K/mol
514 K, Liquid | 464.5 ± 9.3 J/K/mol
515 K, Liquid | 471.8 ± 9.4 J/K/mol
516 K, Liquid | 470.4 ± 9.4 J/K/mol
517 K, Liquid | 466.9 ± 9.3 J/K/mol
518 K, Liquid | 471.1 ± 9.4 J/K/mol
519 K, Liquid | 476.4 ± 9.5 J/K/mol
520 K, Liquid | 475.7 ± 9.5 J/K/mol and 471.8 ± 9.4 J/K/mol
521 K, Liquid | 475.7 ± 9.5 J/K/mol
522 K, Liquid | 480.9 ± 9.6 J/K/mol
523 K, Liquid | 478.1 ± 9.6 J/K/mol
524 K, Liquid | 478.6 ± 9.6 J/K/mol
525 K, Liquid | 479.1 ± 9.6 J/K/mol
526 K, Liquid | 478.1 ± 9.6 J/K/mol
527 K, Liquid | 478.7 ± 9.6 J/K/mol
528 K, Liquid | 478.8 ± 9.6 J/K/mol
529 K, Liquid | 485.8 ± 9.7 J/K/mol
530 K, Liquid | 480.6 ± 9.6 J/K/mol
531 K, Liquid | 474.6 ± 9.5 J/K/mol
532 K, Liquid | 475.7 ± 9.5 J/K/mol
533 K, Liquid | 476 ± 9.5 J/K/mol
534 K, Liquid | 477.4 ± 9.5 J/K/mol
535 K, Liquid | 483.4 ± 9.7 J/K/mol and 478.8 ± 9.6 J/K/mol
536 K, Liquid | 480.6 ± 9.6 J/K/mol
537 K, Liquid | 481.3 ± 9.6 J/K/mol
538 K, Liquid | 483.4 ± 9.7 J/K/mol
539 K, Liquid | 484.4 ± 9.7 J/K/mol
540 K, Liquid | 486.5 ± 9.7 J/K/mol
541 K, Liquid | 486.9 ± 9.7 J/K/mol
542 K, Liquid | 487.6 ± 9.8 J/K/mol
543 K, Liquid | 489 ± 9.8 J/K/mol
544 K, Liquid | 490.7 ± 9.8 J/K/mol
545 K, Liquid | 491.8 ± 9.8 J/K/mol
546 K, Liquid | 493.5 ± 9.9 J/K/mol
547 K, Liquid | 494.9 ± 9.9 J/K/mol
548 K, Liquid | 495.6 ± 9.9 J/K/mol
549 K, Liquid | 496.7 ± 9.9 J/K/mol
550 K, Liquid | 498.4 ± 10 J/K/mol
551 K, Liquid | 499.5 ± 10 J/K/mol
552 K, Liquid | 500.9 ± 10 J/K/mol
553 K, Liquid | 502.3 ± 10 J/K/mol
554 K, Liquid | 503 ± 10 J/K/mol
555 K, Liquid | 504.4 ± 10 J/K/mol
556 K, Liquid | 505.8 ± 10 J/K/mol
557 K, Liquid | 506.5 ± 10 J/K/mol
558 K, Liquid | 508.2 ± 10 J/K/mol
559 K, Liquid | 508.9 ± 10 J/K/mol
560 K, Liquid | 510.3 ± 10 J/K/mol
561 K, Liquid | 511.4 ± 10 J/K/mol
562 K, Liquid | 512.4 ± 10 J/K/mol
563 K, Liquid | 513.1 ± 10 J/K/mol
564 K, Liquid | 514.2 ± 10 J/K/mol
565 K, Liquid | 515.2 ± 10 J/K/mol
566 K, Liquid | 517 ± 10 J/K/mol
567 K, Liquid | 518 ± 10 J/K/mol
568 K, Liquid | 518.4 ± 10 J/K/mol
569 K, Liquid | 518.4 ± 10 J/K/mol
570 K, Liquid | 519.1 ± 10 J/K/mol
571 K, Liquid | 519.4 ± 10 J/K/mol
572 K, Liquid | 518.4 ± 10 J/K/mol
573 K, Liquid | 519.1 ± 10 J/K/mol
574 K, Liquid | 519.1 ± 10 J/K/mol
575 K, Liquid | 521.4 ± 10 J/K/mol and 519.4 ± 10 J/K/mol
576 K, Liquid | 519.8 ± 10 J/K/mol
577 K, Liquid | 518.7 ± 10 J/K/mol
578 K, Liquid | 511.7 ± 10 J/K/mol
579 K, Liquid | 512.8 ± 10 J/K/mol
580 K, Liquid | 514.2 ± 10 J/K/mol and 525.2 ± 10 J/K/mol
581 K, Liquid | 515.9 ± 10 J/K/mol
582 K, Liquid | 517.3 ± 10 J/K/mol
583 K, Liquid | 518.7 ± 10 J/K/mol
584 K, Liquid | 520.5 ± 10 J/K/mol
585 K, Liquid | 521.9 ± 10 J/K/mol and 529.9 ± 11 J/K/mol
586 K, Liquid | 524 ± 10 J/K/mol
587 K, Liquid | 525.4 ± 10 J/K/mol
588 K, Liquid | 526.8 ± 10 J/K/mol
589 K, Liquid | 528.2 ± 11 J/K/mol
590 K, Liquid | 529.9 ± 11 J/K/mol and 531.4 ± 11 J/K/mol
591 K, Liquid | 525.4 ± 10 J/K/mol
592 K, Liquid | 525.4 ± 10 J/K/mol
593 K, Liquid | 526.1 ± 10 J/K/mol
594 K, Liquid | 526.4 ± 10 J/K/mol
595 K, Liquid | 525.4 ± 10 J/K/mol and 534.2 ± 11 J/K/mol
596 K, Liquid | 526.1 ± 10 J/K/mol
597 K, Liquid | 526.1 ± 10 J/K/mol
598 K, Liquid | 527.1 ± 10 J/K/mol
599 K, Liquid | 525.7 ± 10 J/K/mol
600 K, Liquid | 525 ± 10 J/K/mol and 537.1 ± 11 J/K/mol
601 K, Liquid | 526.4 ± 10 J/K/mol
602 K, Liquid | 521.9 ± 10 J/K/mol
603 K, Liquid | 521.9 ± 10 J/K/mol
604 K, Liquid | 519.8 ± 10 J/K/mol
605 K, Liquid | 522.6 ± 10 J/K/mol and 539.5 ± 11 J/K/mol
606 K, Liquid | 524.7 ± 10 J/K/mol
607 K, Liquid | 524.7 ± 10 J/K/mol
608 K, Liquid | 520.8 ± 10 J/K/mol
609 K, Liquid | 521.9 ± 10 J/K/mol
610 K, Liquid | 526.8 ± 10 J/K/mol and 541 ± 11 J/K/mol
611 K, Liquid | 532 ± 11 J/K/mol
612 K, Liquid | 525 ± 10 J/K/mol
613 K, Liquid | 529.2 ± 11 J/K/mol
614 K, Liquid | 536.6 ± 11 J/K/mol
615 K, Liquid | 532 ± 11 J/K/mol and 545.6 ± 11 J/K/mol
616 K, Liquid | 533.8 ± 11 J/K/mol
617 K, Liquid | 541.5 ± 11 J/K/mol
618 K, Liquid | 537.6 ± 11 J/K/mol
619 K, Liquid | 543.2 ± 11 J/K/mol
620 K, Liquid | 538.7 ± 11 J/K/mol and 547.7 ± 11 J/K/mol
621 K, Liquid | 542.2 ± 11 J/K/mol
622 K, Liquid | 543.6 ± 11 J/K/mol
623 K, Liquid | 544.3 ± 11 J/K/mol
623.15 K, Liquid | 543.9 ± 11 J/K/mol and 552.9 ± 11 J/K/mol
